According to BigSolDB 2.1:

NNC(=O)c1ccncc1
solubility (mole fraction)
Settings | 301 K | 303 K | 308 K | 311 K | 313 K
in acetone | 0.00946 | 0.0104 | 0.0136 | 0.016 | 0.0187
in ethanol | 0.00545 | 0.00579 | 0.00717 | 0.00816 | 0.00887
in ethyl acetate | 0.00159 | 0.00172 | 0.00206 | 0.00225 | 0.00251
in methanol | 0.0107 | 0.0114 | 0.0137 | 0.0154 | 0.0163
